Reference: patent US20190388362A1, “PHARMACEUTICAL COMPOSITION FOR TREATING ORAL PRECANCER AND METHOD FOR PREDICTING OR DIAGNOSING ORAL PRECANCER OR ORAL CANCER” (MET Life Sciences Co., Ltd., priority 2017, published 2019)

How the values were obtained:
[1] = system: Axin2; experiment: Axin2 expression in cell lysate of colorectal cancer cells treated with HCA and BCA; assay type: cell-based; settings: at an nM level
Excerpt: (§1) According to the previous research results, it has been known that 2′-Hydroxycinnamaldehyde (HCA), which is a main component of cinnamon, and a derivative thereof, i.e., 2′-benzoyloxycinnamaldehyde (BCA) inhibit cancer metastasis through Snail expression inhibition by inhibiting LRP-1 receptors (Hwang H et al., J Neuroimmunol 2011, 230, 52-64; Ismail I A, et al., Breast Cancer Res Treat, 137, 697-708, 2013). Thus, to confirm whether HCA and BCA are capable of inhibiting Axin2 expression and Snail expression, colorectal cancer cells were treated with HCA and BCA, and it was examined whether Axin2 and Snail were expressed in a cell lysate. As HCA and BCA, those separated from cinnamon bark and purified were used (Hwang H et al., J Neuroimmunol 2011, 230, 52-64). As a result, as illustrated in FIGS. 11A and 11B, it was confirmed that HCA and BCA inhibited the expression of Axin2 and Snail at an nM level.

[2] = system: Snail; experiment: Snail expression in cell lysate of colorectal cancer cells treated with HCA and BCA; assay type: cell-based; settings: at an nM level
Excerpt: as §1

[3] = system: Axin2; experiment: Axin2 expression in colorectal cancer cell lines treated with niclosamide; assay type: cell-based; settings: HCT116, SW480, SW620 and DLD-1 cells; niclosamide at an nM level
[4] = system: Snail; experiment: Snail expression in colorectal cancer cell lines treated with niclosamide; assay type: cell-based; settings: HCT116, SW480, SW620 and DLD-1 cells; niclosamide at an nM level
[5] = target: T1, Axin-GSK3 complex (Homo sapiens, UniProt P49841); experiment: Immunoprecipitation of His-tagged Axin2 from MCF-7 cell lysate, immunoblot for GSK3; assay type: binding; settings: MCF-7 cells with His-tagged Axin2, Triton X-100 lysate, Ni-Ti beads
T1 construct: expressed in transfected cells; host or cells: MCF-7 (Axin2 transfected, doxycycline-induced; GSK3 endogenous)
Protocol: To confirm whether niclosamide is capable of inhibiting Axin-GSK3 interaction, cell lysates with full-length Axin2 were examined to perform immunoprecipitation experiments in the presence or absence of niclosamide.
An immunoprecipitation assay was performed as follows (Yook J I, et al. Nat Cell Biol. 8:1398-1406, 2006).
A doxycycline-induced His-tagged Axin2 expression vector was transfected into MCF-7 cells (ATCC, American Type Culture collection) and cultured, and a Triton X-100 lysate of whole cells was treated with Ni—Ti beads (Invitrogen) and niclosamide at each concentration to allow a reaction to occur therebetween. Proteins recovered in the beads were subjected to SDS-PAGE, followed by immunoblot analysis for GSK3, and a 1/20 volume of a control was added thereto.

[6] = target: T2, recombinant GSK3 beta / Axin peptide interaction (Homo sapiens, UniProt P49841); experiment: Competitive inhibition of recombinant GSK3 binding to FITC-conjugated 19-mer Axin peptide (bead fluorescence); settings: in proportionate to the concentration of niclosamide added; 2 hours
T2 construct: made in house; host or cells: Sf9 insect cells (GSK3 beta); peptide chemically synthesized (Peptron)
Excerpt: In the previously reported results of analyzing the structure of Axin-GSK3 binding, accumulation of the hydrophobic residues of Axin α-helix into a hydrophobic groove formed by the C-terminal loop of GSK3 is disclosed (Dajani R et al., EMBO J. 22:494-501, 2003), and thus the inventors of the present invention hypothesized that niclosamide would bind to the hydrophobic groove of GSK3 and interfere with the function of Axin. To verify this, in vitro analysis was designed to identify competitive inhibition of recombinant GSK3 binding to 19-mer FITC-conjugated Axin peptides by niclosamide.
Hig-tagged recombinant GSK3 beta was obtained from sf9 insect cells using a known method (Lee D G, et al. Nat Commun. 5:4423, 2014). The FITC-conjugated 19-mer Axin peptide (Axin1, 383-401, VEPQKFAEELIHRLEAVQR), which is known to bind to GSK3 as an amphipathic α-helix, was chemically synthesized (Peptron). To confirm competitive binding between the synthesized Axin peptide and niclosamide, His-tagged recombinant GSK3 and Ni—Ti beads were treated with niclosamide for 2 hours, and then washed three times with PBS, and quantitative fluorescence measurement was performed using Ni—Ti beads. Fluorescence intensity was represented in proportionate to the fluorescence intensity of a negative control from the 3rd experiment.

[7] = target: recombinant GSK3β (Homo sapiens, UniProt P49841); experiment: Surface plasma resonance (SPR) analysis on immobilized recombinant GSK3β; assay type: binding
Protocol: Surface plasma resonance (SPR) analysis was performed to confirm whether niclosamide directly binds to GSK3. SPR was conducted using the ProteOn™ XPR36 Protein Interaction Array system (Bio-Rad Laboratories, Inc., CA, USA), and purified recombinant GSK3β, was immobilized to a ProteOn GLH sensor chip. Niclosamide or 19-mer wild type Axin peptide or mutant peptide (VEPQKAAEEAIHRAEAVQR, mutation underlined) were diluted by phosphate-buffered saline+Tween 20+1% DMSO at different concentrations and then flowed over the chip at a rate of 100 μl/min. The results thereof were analyzed by ProteOn Manager Software 2.0 using the standard Langmuir models for fitting kinetic data. The rate of complex formation was represented by the association constant (ka, in the unit of M-1s-1), and the rate of complex decay was represented by the dissociation constant (kd, in the unit of s-1), as given by Equation 1 below.
A high-affinity interaction is represented by a low dissociation constant, and rapid recognition and binding with interactants (rapid “on rate,” or high ka) and the stability of complex formation (slow “off rate,” or low kd) are as shown in the following equation: KD=kd/ka.

[8] = system: Axin2; experiment: Western blotting of Axin2 in oral cancer and oral precancer cell lines; assay type: cell-based; settings: YD-10B, KB and D38 cell lines, 16 hours
Excerpt: (§2) The expression of Axin2 and Snail was confirmed in a cell lysate after treating YD-10B (CVCL-8929) and KB (CVC_L 0372), which are oral cancer cell lines, and D38, which is an oral precancer cell line (McGregor F. et al., CANCER RESEARCH 62, 4757-4766, 2002), with various concentrations of niclosamide by using the same method of Example 5.
(§3) For the YD-10B and KB cell lines, a RPMI1640 medium containing 10% FBS and 1% penicillin/streptomycin was used. For the oral precancer cell line D38, a DMEM: F12 (3:1) medium containing 10% FBS and 1% penicillin/streptomycin was used. The respective cells were treated with niclosamide at the indicated concentration for 16 hours and the expression of Axin2 and Snail was analyzed through western blotting.

[9] = system: Snail; experiment: Western blotting of Snail in oral cancer and oral precancer cell lines; assay type: cell-based; settings: YD-10B, KB and D38 cell lines, 16 hours
Excerpt: as §2, §3

[10] = system: YD-10B cell line; experiment: Migration assay (crystal violet), YD-10B; assay type: cell-based; settings: niclosamide-concentration-dependent
Protocol: (§4) Cell migration is regulated by Axin2 and Snail. In the present example, the YD-10B cell line, the KB cell line, and the oral precancer cell line D38 were treated with niclosamide, a migration assay was performed thereon, and then the cells were stained with crystal violet and cell migration values were measured.

[11] = system: KB cell line; experiment: Migration assay (crystal violet), KB; assay type: cell-based; settings: niclosamide-concentration-dependent
Protocol: as §4

[12] = system: oral precancer cell line D38; experiment: Migration assay (crystal violet), D38; assay type: cell-based; settings: niclosamide-concentration-dependent
Protocol: as §4

[13] = system: oral precancer cell line D38; experiment: Trypan exclusion assay for apoptosis; assay type: cell-based; settings: D38, 72 hours, concentration-dependent
Protocol: The oral precancer cell line D38 was treated with various concentrations of niclosamide for 72 hours and apoptosis was confirmed through a trypan exclusion assay.

[14] = system: oral cancer cell line YD-10B; experiment: Cell growth by counting cells in real time, YD-10B; assay type: cell-based; settings: as the concentration of niclosamide was increased
Protocol: (§5) The oral cancer cell lines YD-10B and KB and the oral precancer cell line D38 were treated with various concentrations of niclosamide, and cell growth was measured by counting cells in real time.

[15] = system: oral cancer cell line KB; experiment: Cell growth by counting cells in real time, KB; assay type: cell-based; settings: as the concentration of niclosamide was increased
Protocol: as §5

[16] = system: oral precancer cell line D38; experiment: Cell growth by counting cells in real time, D38; assay type: cell-based; settings: as the concentration of niclosamide was increased
Protocol: as §5

[17] = system: oral precancer cell line D38; experiment: 3D culture model on collagen sheet, D38; assay type: cell-based; settings: 0.125 μM niclosamide
Protocol: To confirm the niclosamide treatment effect in a 3D culture model, the results of treatment with 0.125 μM niclosamide when the oral precancer cell line D38 was cultured on a collagen sheet are illustrated in FIG. 17, in part A thereof.

[18] = system: oral cancer cells YD10B; experiment: 3D culture model, YD10B; assay type: cell-based; settings: YD10B three-dimensionally cultured, 0.125 μM niclosamide
[19] = system: oral precancer cell line D38; experiment: Soft agar colony formation assay, D38; assay type: cell-based; settings: 3 weeks, according to niclosamide treatment concentration
Protocol: (§6) The oral precancer cell line D38 and the oral cancer cell line YD10B were cultured on soft agar plates containing various concentrations of niclosamide. The corresponding concentration of niclosamide was administered while the respective cells were cultured on the soft agar plates for 3 weeks.

[20] = system: oral cancer cell line YD10B; experiment: Soft agar colony formation assay, YD10B; assay type: cell-based; settings: 3 weeks, according to niclosamide treatment concentration
Protocol: as §6

[21] = system: oral cancer cells YD10B; experiment: YD10B oral cancer cell transplant in immunodeficient mice; assay type: in vivo; settings: 200 mg/kg (mpk), orally, daily; Balb/c athymic nude mice with YD10B cells
Excerpt: To confirm the effect of niclosamide on the inhibition of oral cancer in an animal model, oral cancer cells YD10B (3×10^6 cells) were transplanted to immunodeficient mice (Balb/c, athymic nude mice, NaraBiotech), the mice were divided into two groups, and then niclosamide was orally administered to the two groups daily.

Chain of recombinant GSK3β (P49841 whole entry): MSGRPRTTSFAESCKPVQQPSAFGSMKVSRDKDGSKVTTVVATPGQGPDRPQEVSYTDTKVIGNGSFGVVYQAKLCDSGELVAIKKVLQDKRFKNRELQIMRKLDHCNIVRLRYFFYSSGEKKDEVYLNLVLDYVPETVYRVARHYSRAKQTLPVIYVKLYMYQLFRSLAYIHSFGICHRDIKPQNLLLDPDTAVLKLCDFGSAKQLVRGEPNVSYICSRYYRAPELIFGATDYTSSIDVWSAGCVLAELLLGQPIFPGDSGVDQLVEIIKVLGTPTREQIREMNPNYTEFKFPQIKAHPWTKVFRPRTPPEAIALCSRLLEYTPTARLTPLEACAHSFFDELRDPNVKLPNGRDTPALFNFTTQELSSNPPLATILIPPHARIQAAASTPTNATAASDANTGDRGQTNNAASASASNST
T1 sequence (P49841 whole entry, one chain of several): as the sequence (P49841 whole entry) above
T2 sequence (P49841 whole entry): as above

Molecule: O=CC=Cc1ccccc1OC(=O)c1ccccc1 [BCA, 2′-benzoyloxycinnamaldehyde]
- expression of Axin2 [1]: inhibited
- expression of Snail [2]: inhibited

Molecule: O=CC=Cc1ccccc1O [HCA, 2′-Hydroxycinnamaldehyde]
- expression of Axin2 [1]: inhibited
- expression of Snail [2]: inhibited

Molecule: O=C(Nc1ccc([N+](=O)[O-])cc1Cl)c1cc(Cl)ccc1O [niclosamide]
- Axin2 expression [3]: decreased
- Snail expression [4]: decreased
- GSK3 that binds to Axin2 in a total cell lysate [5]: reduced
- interaction between the recombinant GSK3 and the synthesized Axin peptide [6]: inhibited
- direct binding to GSK3 [7]: directly bound
- Kd ([7]; GSK3β immobilized on sensor chip, read-out: equilibrium dissociation constant KD): 34 µM
- expression of Axin2 [8]: inhibited
- expression of Snail [9]: inhibited
- cell migration [10]: inhibited
- cell migration [11]: inhibited
- cell migration [12]: inhibited
- apoptosis [13]: occurred
- cell growth [14]: inhibited
- cell growth [15]: inhibited
- cell growth [16]: inhibited
- cell density [17]: reduced
- keratinocytic differentiation [17]: induced
- basal membrane ([17]; destroyed in control): smooth basal membrane was observed
- invasiveness of cancer cells [18]: rapidly reduced
- colony formation [19]: inhibited
- colony formation [20]: inhibited
- volume of tumors [21]: reduced

Molecule: CC[C@H](C)[C@H](NC(=O)[C@H](CC(C)C)NC(=O)[C@H](CCC(=O)O)NC(=O)[C@H](CCC(=O)O)NC(=O)[C@H](C)NC(=O)[C@H](Cc1ccccc1)NC(=O)[C@H](CCCCN)NC(=O)[C@H](CCC(N)=O)NC(=O)[C@@H]1CCCN1C(=O)[C@H](CCC(=O)O)NC(=O)[C@@H](N)C(C)C)C(=O)N[C@@H](Cc1c[nH]cn1)C(=O)N[C@@H](CCCNC(=N)N)C(=O)N[C@@H](CC(C)C)C(=O)N[C@@H](CCC(=O)O)C(=O)N[C@@H](C)C(=O)N[C@H](C(=O)N[C@@H](CCC(N)=O)C(=O)N[C@@H](CCCNC(=N)N)C(=O)O)C(C)C [wild type Axin peptide]
- direct binding to GSK3 [7]: directly bound

Molecule: Mutant Axin peptide: mutant 19-mer Axin peptide VEPQKAAEEAIHRAEAVQR, mutations on hydrophobic residues
- binding to GSK3 protein immobilized on a sensor surface ([7]; up to 100 μM): unable to bind
